Measurements: ChEMBL document CHEMBL1201862, “PubChem BioAssay data set” (2004)
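Method: 48-hour compound exposure of cells in 96-well plates, five concentrations, linear interpolation of endpoints. GI50 = concentration required for 50% inhibition of growth.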 The source made the active and inactive calls. No stated cut-off is given here; in the data, active = GI50 up to about 1.1 µM and inactive = higher.

What was measured:
Test in all cases: NCI-60 cell line screen, 48 h
MCF7 = system: MCF7
A549 = system: A549
SK-MEL-5 = system: SK-MEL-5
SK-MEL-28 = system: SK-MEL-28
DU-145 = system: DU-145
MDA-N = system: MDA-N
UO-31 = system: UO-31
SK-MEL-2 = system: SK-MEL-2
T47D = system: T47D
SW-620 = system: SW-620
MDA-MB-231 = system: MDA-MB-231
HCT-116 = system: HCT-116
IGROV-1 = system: IGROV-1
SF-295 = system: SF-295
SF-539 = system: SF-539
A498 = system: A498
TK-10 = system: TK-10
HCT-15 = system: HCT-15
BT-549 = system: BT-549
OVCAR-8 = system: OVCAR-8
PC-3 = system: PC-3
RPMI-8226 = system: RPMI-8226
K562 = system: K562
OVCAR-5 = system: OVCAR-5
HCC 2998 = system: HCC 2998
NCI-H23 = system: NCI-H23
SN12C = system: SN12C
ACHN = system: ACHN
SNB-75 = system: SNB-75
SNB-19 = system: SNB-19
HL-60 = system: HL-60
NCI-H460 = system: NCI-H460
EKVX = system: EKVX
LOX IMVI = system: LOX IMVI
MOLT-4 = system: MOLT-4
CAKI-1 = system: CAKI-1
SK-OV-3 = system: SK-OV-3
UACC-62 = system: UACC-62
NCI/ADR-RES = system: NCI/ADR-RES
M14 = system: M14
Malme-3M = system: Malme-3M
786-0 = system: 786-0
COLO 205 = system: COLO 205
NCI-H522 = system: NCI-H522
OVCAR-3 = system: OVCAR-3
CCRF-CEM = system: CCRF-CEM
HT-29 = system: HT-29
MDA-MB-435 = system: MDA-MB-435
OVCAR-4 = system: OVCAR-4
Hs-578T = system: Hs-578T
HOP-92 = system: HOP-92
SF-268 = system: SF-268
UACC-257 = system: UACC-257
NCI-H226 = system: NCI-H226
U-251 = system: U-251
KM12 = system: KM12

COC(=O)c1ccc(NCC2=C(Br)C(=O)C=CC2=O)cc1Cl
GI50 (MCF7): 17 µM (inactive)
GI50 (A549): > 100 µM (inactive)
GI50 (SK-MEL-5): 20.1 µM (inactive)
GI50 (SK-MEL-28): 18.8 µM (inactive)
GI50 (DU-145): 22.8 µM (inactive)
GI50 (MDA-N): 16.9 µM (inactive)
GI50 (UO-31): 16.4 µM (inactive)
GI50 (SK-MEL-2): 20.2 µM (inactive)
GI50 (T47D): 20 µM (inactive)
GI50 (SW-620): 16 µM (inactive)
GI50 (MDA-MB-231): 18.3 µM (inactive)
GI50 (HCT-116): 18 µM (inactive)
GI50 (IGROV-1): 15.5 µM (inactive)
GI50 (SF-295): 40.1 µM (inactive)
GI50 (SF-539): 16.8 µM (inactive)
GI50 (A498): > 100 µM (inactive)
GI50 (TK-10): 16.4 µM (inactive)
GI50 (HCT-15): 15.8 µM
GI50 (BT-549): 13.1 µM (inactive)
GI50 (OVCAR-8): 19.3 µM (inactive)
GI50 (PC-3): 20 µM (inactive)
GI50 (RPMI-8226): 40.3 µM (inactive)
GI50 (K562): 3.54 µM (inactive)
GI50 (OVCAR-5): 21.8 µM (inactive)
GI50 (HCC 2998): 42.6 µM (inactive)
GI50 (NCI-H23): 21 µM (inactive)
GI50 (SN12C): 16.5 µM (inactive)
GI50 (ACHN): 17 µM (inactive)
GI50 (SNB-75): 42.5 µM (inactive)
GI50 (SNB-19): > 100 µM (inactive)
GI50 (HL-60): 3.68 µM (inactive)
GI50 (NCI-H460): 17.2 µM (inactive)
GI50 (EKVX): 14.1 µM (inactive)
GI50 (LOX IMVI): 14.9 µM (inactive)
GI50 (MOLT-4): 17.7 µM (inactive)
GI50 (CAKI-1): 26.9 µM (inactive)
GI50 (SK-OV-3): > 100 µM (inactive)
GI50 (UACC-62): 18.8 µM (inactive)
GI50 (NCI/ADR-RES): 23.2 µM (inactive)
GI50 (M14): 18.2 µM (inactive)
GI50 (Malme-3M): 15.2 µM (inactive)
GI50 (786-0): 13.3 µM (inactive)
GI50 (COLO 205): 17.8 µM (inactive)
GI50 (NCI-H522): 6.43 µM (inactive)
GI50 (OVCAR-3): 13.9 µM (inactive)
GI50 (CCRF-CEM): > 100 µM (inactive)
GI50 (HT-29): 17.7 µM (inactive)
GI50 (MDA-MB-435): 19.2 µM (inactive)
GI50 (OVCAR-4): 24.4 µM (inactive)
GI50 (Hs-578T): 21.9 µM (inactive)
GI50 (HOP-92): 15.6 µM (inactive)
GI50 (SF-268): 16.8 µM (inactive)
GI50 (UACC-257): 23.8 µM (inactive)
GI50 (NCI-H226): 74.8 µM (inactive)
GI50 (U-251): 22.8 µM (inactive)
GI50 (KM12): 34.5 µM (inactive)
